This note sets out measurements from patent US10139420B2, “Methods for treating vaso-occlusive crisis using non-modified annexin V” (ISNERM (Institut National de la Sante et de la Recherche …, priority 2011, dated 2018).

Entries after “also recorded” stand apart in the source; their conditions may differ.

For assay [1], the system named is wild type mouse erythrocytes. Put plainly: Echinocyte conversion and MP shedding by isolated erythrocytes (LORCA ektacytometer, microscopy, FACS), wild type. It is filed as cell-based. The settings on record: for increase in MP shedding in wild type erythrocytes: peptides 25 μM, versus control peptides. On the procedure:
(§1) Mouse blood was obtained through retro-orbital sinus puncture, mixed with anti-coagulant heparin buffer (5 UI/ml), and collected on citrated tubes. Blood diluted 1:1 with PBS (Gibco-Life Sciences) was placed onto histopaque-1083 (Sigma) density gradients for centrifugation (600 g, 25 minutes). Erythrocyte pellets were resuspended, washed in DMEM and stored for up to 4 hours at room temperature. Erythrocyte surface CD47 expression was assessed by FACS. Fresh RBC were washed and blocked with PBS-BSA 5% for 30 min and immunoreacted with mouse-specific fluoroisothiocyanate (FITC)-coupled anti-CD47 monoclonal antibody (clone mIAP301; BD Biosciences, Le Pont de Claix, France), or matched irrelevant IgG2aκ isotype for 45 min in 2% PBS-BSA. Erythrocytes were washed in PBS-BSA 2% prior to FACS analysis. Erythrocyte phenotypes were analyzed by […] electronic microscopy. Briefly, mouse erythrocytes were fixed with glutaraldehyde 1% and paraformaldehyde 4%, dehydrated and embedded in Epon™ epoxy resin. Sections contrasted with uranyl acetate and lead citrate were examined with a JEOL JEM 1010 microscope. Average apparent spicule number was determined by direct counting in 80 to 120 cells per condition.
(§2) To trigger MP shedding, erythrocyte were suspended in polyvinylpyrrolidone (31 mPa.s) and placed in a rotating type LORCA ektacytometer (R&R Mechatronics, Hoorn, The
(§3) Netherlands) in the absence or presence of TSP1 (25 μg/ml), or TSP1-derived peptides 4N1-1 or 4N1-2 (25 μM). Shear rate was applied according to the builder's program (1500 s^−1; 2.5 minutes). Erythrocytes were immediately separated and supernatant PS^+ MP quantified by FACS. Concentrated MP stocks were generated from 10 to 20 ml of supernatant from erythrocytes suspended in RPMI-1640 (4.10^6/ml) and treated with 4N1-1. Suspensions were centrifuged at 400 g for 15 min to discard cells, and ultracentrifuged at 20500 g for 45 min to pellet MP, which were resuspended in filtered (0.2 μm) DMEM and stored at −80° C. MP concentrations were determined as previously described (20). Briefly, MP were labeled with 2 μl FITC-conjugated annexin-V (Roche Diagnostics, France) diluted in 100 μl reaction buffer with 5 mM CaCl2. CaCl2 was omitted in negative controls. MP were analyzed on a Coulter EPICS XL flow cytometer (Beckman Coulter). MP were identified in forward light scatter (FSc) and side-angle light scatter (SSc) intensity dot plots set at logarithmic gain, as events of 0.1-1 μm in diameter. MP-size events were analyzed in FL/FSC fluorescence dot plots to determine annexin-V labeling. MP concentration was determined with respect to calibrated fluorescent microbeads (Flowcount). To determine erythrocyte origin, MP were double labeled with rat PE-Cy7-coupled mouse-specific anti-Ter119 antibody (Biolegend via Ozyme, France), or matched irrelevant IgG2bκ isotype.

The next assay relates to SAD mouse erythrocytes. Put plainly: Echinocyte conversion and MP shedding by isolated erythrocytes (LORCA ektacytometer, microscopy, FACS), SAD. It is filed as cell-based. The settings on record: for raise in MP shedding in SAD erythrocytes: peptides 25 μM, versus control peptides. On the procedure:
as §1, §2, §3

A further assay deals with SAD mice. Description: Circulating PS+ MP in platelet-free plasma by FACS (annexin-V labeling), SAD mice. It is filed as in vivo, mouse. The settings on record: injected to mice, compared with whole TSP1. Here is the method: We characterized the induction of VOC in SAD transgenic mice (18, 19) according to our previously published method, in response to the intravenous administration of TSP1 (1 mg/kg), TSP1-derived peptides 4N1-1 or 4N1-2, or purified erythrocyte MP. Briefly, mice were anesthetized with isoflurane and monitored to prevent any cardiorespiratory depression. Mice were shaved and placed in the decubitus position on a heating blanket (38° C.). We used a Vivid 7 echograph (GE Medical Systems®, Horten, Norway) equipped with a 12-MHz linear transducer (12 L). […] A pulsed Doppler spectrum was recorded and peak systolic, end-diastolic and time-average mean BFV were measured in the renal artery, with Doppler beam angle correction. To calculate cardiac output, spatial flow profiles were analyzed in parasternal long-axis B-mode images of the pulmonary artery and BFV were measured as above. […] Circulating MP were quantified by FACS.
Netherlands) in the absence or presence of TSP1 (25 μg/ml), or TSP1-derived peptides 4N1-1 or 4N1-2 (25 μM). […] Erythrocytes were immediately separated and supernatant PS^+ MP quantified by FACS. […] MP concentrations were determined as previously described (20). […] MP were analyzed on a Coulter EPICS XL flow cytometer (Beckman Coulter). […] MP-size events were analyzed in FL/FSC fluorescence dot plots to determine annexin-V labeling. […]
For orientation: In flow cytometry, cells or beads pass a laser one at a time.

Assay [2] concerns SV40-transformed mouse lymph node endothelial cells (SVEC4-10). Description: Endothelial ROS production (H2DFF-DA assay). It counts as cell-based. On the procedure: SV40-transformed mouse lymph node endothelial cells (SVEC4-10 from ATCC) were obtained from LGC Promochem, France and grown in Dulbecco's Modified Eagle Medium (DMEM) supplemented with 20% neonatal calf serum (NCS; Dominique Dutscher) in 24 well plaques at 37° C. with 5% CO2. Confluent SVEC monolayers in 96 well plates were incubated with 25 MP/μl for up to 2 h. To determine ROS production, 5-(6-)Carboxy-2′,7′-difluorodihydrofluorescein diacetate (H2DFF-DA; 10 μM), was supplemented to the medium for the last 30 minutes, and fluorescence was read in an automated fluorescence plate reader. For erythrocyte adhesion experiments, MP-primed SVEC monolayers were washed and incubated with RBC suspensions in DMEM (1.10^6 RBC/ml). Supernatant cells were discarded after 30 min, and adherent cells were counted by phase contrast microscopy in 5 random fields per well (400×). All conditions were tested 3 to 6 times, in triplicates. In cell cycle analysis, SVEC were cultured up to 70% confluency, washed and placed in DMEM with 0.05% NCS with or without RBC MP. After 16 hours, SVEC were trypsinized, fixed overnight in ice-cold 70% ethanol-H20, and incubated in 0.05% Triton X100, 100 μg/ml RNase A plus 50 μg/ml propidium iodide for 1 h in the dark. Total DNA content was determined by FACS. DNA profiles were divided as sub-G1 (apoptosis), G0/G1 (resting) and G2/M (proliferation) phases of the cell cycle. Data shown is the mean percentage of cells in each phase, in 3 to 6 independent experiments.

A further assay deals with SAD transgenic mice. Put plainly: Vaso-occlusive crises in mice: renal artery blood flow velocity by Echo-Doppler, cardiac output, renal histology. It counts as in vivo, mouse. The settings on record: SAD RBC MP pre-incubated with annexin-V and washed, 300.10^3 MP/mouse. Here is the method:
We characterized the induction of VOC in SAD transgenic mice (18, 19) according to our previously published method, in response to the intravenous administration of TSP1 (1 mg/kg), TSP1-derived peptides 4N1-1 or 4N1-2, or purified erythrocyte MP. Briefly, mice were anesthetized with isoflurane and monitored to prevent any cardiorespiratory depression. Mice were shaved and placed in the decubitus position on a heating blanket (38° C.). We used a Vivid 7 echograph (GE Medical Systems®, Horten, Norway) equipped with a 12-MHz linear transducer (12 L). The ultrasound probe was placed on the left side of the abdomen for examination of renal arteries, or in left lateral decubitus for cardiac output acquisition with transducer on the chest. Data were transferred on-line to an EchoPAC ultrasound image analysis workstation (GE Medical Systems®). Two-Dimensional ultrasound imaging of the abdomen in left-sided longitudinal B-mode allowed kidney width and height measurements. Color-coded blood flow detection by Doppler enabled renal arteries to be localized. A pulsed Doppler spectrum was recorded and peak systolic, end-diastolic and time-average mean BFV were measured in the renal artery, with Doppler beam angle correction. To calculate cardiac output, spatial flow profiles were analyzed in parasternal long-axis B-mode images of the pulmonary artery and BFV were measured as above. The following formula was applied: CO=[(V^mean·60)·(π·(Dpa/2^2)], where CO is the cardiac output in ml/minute, V^mean is the mean time-averaged BFV in cm/s and Dpa is the pulmonary artery diameter in cm. Kidney sizes and BFV were determined by the same investigator, as means of 5 to 8 measurements. Repeatability for cardiac output measurements was verified. We controlled and confirmed that kidney size was similar between SAD and wild type mice. After sacrifice, kidneys were dissected, dehydrated, mounted in paraffin, sectioned and stained by Masson trichrome. Vascular congestion was observed by phase-contrast microscopy, as large erythrocyte aggregates occluding kidney capillaries and larger vessels. In some experiments, TSP1 (1 mg/kg) or control BSA (1 mg/kg) were injected. After 5 minutes, mice were terminally anesthetized by pentobarbital overdose. Whole blood was collected through cardiac puncture, centrifuged (400 g, 15 minutes) to eliminate erythrocytes and leukocytes, and double centrifuged (12500 g, 5 minutes) to eliminate platelets with minimal activation. Supernatants were considered platelet-free plasma (PFP). Circulating MP were quantified by FACS.
We evaluated the concept that TSP1 influences VOC during SCD in vivo. We used SAD transgenic mice that express a mutated human hemoglobin β-chain known to cause sickle cell formation and sensitivity to VOC (18, 19).

Setting [3] is: scanning electron microscopy, after peptide treatment.
Setting [4] is: endothelial NOS blocked, L-NAME 100 μM, enantiomer D-NAME as control.
Setting [5] is: endothelial PKC activity inhibited, 1 μM.

For the molecule “4N1-1: Synthetic TSP1 carboxyterminal peptide RFYVVMWK (SEQ ID NO:1), CD47 agonist (4N1-1)”, the “echinocytosis: change in wild type echinocytes” value in assay [1] (peptide 25 μM) is on record as “doubling”. Further, the “spicule numbers in healthy wild type erythrocytes” value in assay [1] (setting [3]) is “not in healthy wild type erythrocytes”. Further, the “effect on sickle cells” value with SAD mouse erythrocytes (SAD erythrocytes, TSP1 or peptide) was “did not affect sickle cells”. In addition, in the assay with SAD mouse erythrocytes (setting [3]), the “increase in spicule numbers in SAD RBC” value is 20%. Further, the “increase in SAD echinocytes” value with SAD mouse erythrocytes (under shear, TSP1 (25 μg/ml) or peptide (25 μM), vs control) was determined as 50%. Moreover, in the assay with SAD mice, the “effects on circulating PS+ MP after injection of the peptide” value is given as “comparable to whole TSP1”. As to “4N1-2: Synthetic truncated control peptide RFYVVM (SEQ ID NO:2) (4N1-2)”, in assay [1], the “increase in MP shedding in wild type erythrocytes” value is “no effect”. Moreover, the “raise in MP shedding in SAD erythrocytes” value in the assay with SAD mouse erythrocytes is recorded as “no effect”. For “4NGG: Mutated control peptide RFYGGMWK (SEQ ID NO:3) devoid of the VVM motif (4NGG)”, in assay [1], the “increase in MP shedding in wild type erythrocytes” value is given as “no effect”. Also, the “raise in MP shedding in SAD erythrocytes” value in the assay on SAD mouse erythrocytes is on record as “no effect”. Turning to `COC(=O)[C@H](N)CCCN=C(N)N[N+](=O)[O-]` [D-NAME], in assay [2] (setting [4]), the “ROS generation induced by SAD RBC MP” value was “had no effects”. As for `c1ccc2c(c1)[I+]c1ccccc1-2` [DPI], the “ROS generation induced by SAD RBC MP” value in assay [2] (endothelial NADPH oxydase blocked, 10 μM, 30 minutes) is given as “prevented”. `Cn1c2ccccc2c2c3c(c4c5ccccc5n(CCC#N)c4c21)C(=O)NC3` [Gö-6976]: the “ROS generation induced by SAD RBC MP” value in assay [2] (setting [5]) is “prevented”. `COC(=O)[C@@H](N)CCCNC(=N)N[N+](=O)[O-]` [L-NAME]: the “ROS generation induced by SAD RBC MP” value in assay [2] (setting [4]) is reported as “entirely inhibited”.

With `Cn1cc(C2=C(c3cn(CCCSC(=N)N)c4ccccc34)C(=O)NC2=O)c2ccccc21` [Ro-31-8220], the “ROS generation induced by SAD RBC MP” value in assay [2] (setting [5]) is listed as “prevented”. Turning to `COc1cc(C(C)=O)ccc1O` [apocynin], in assay [2] (endothelial NADPH oxydase blocked, 100 μM, 30 minutes), the “ROS generation induced by SAD RBC MP” value was “prevented”.

B1: annexin-V: Recombinant protein that binds externalized phosphatidylserine in a calcium dependent manner (protein, UniProt P08758 2-320, looked up)
Annexin A5: AQVLRGTVTDFPGFDERADAETLRKAMKGLGTDEESILTLLTSRSNAQRQEISAAFKTLFGRDLLDDLKSELTGKFEKLIVALMKPSRLYDAYELKHALKGAGTNEKVLTEIIASRTPEELRAIKQVYEEEYGSSLEDDVVGDTSGYYQRMLVVLLQANRDPDAGIDEAQVEQDAQALFQAGELKWGTDEEKFITIFGTRSVSHLRKVFDKYMTISGFQIEETIDRETSGNLEQLLLAVVKSIRSIPAYLAETLYYAMKGAGTDDHTLIRVMVSRSEIDLFNIRKEFRKNFATSLYSMIKGDTSGDYKKALLLLCGEDD
For B1, the “VOC parameters after injection of annexin-V-saturated SAD RBC MP” value is “failed to modify VOC parameters” with SAD transgenic mice and “abrogated the induction of VOC” in the assay with SAD transgenic mice (listed as Annexin-V). The “ROS generation induced by SAD RBC MP” value in assay [2] (MP PS previously saturated with recombinant annexin-V, 1 μg/ml for 1 hour) is recorded as “entirely inhibited; also recorded: prevented”.
